Data set [1] concerns the target T1, STAT6 (Homo sapiens, UniProt P42226).
T1 sequence (P42226 1-847): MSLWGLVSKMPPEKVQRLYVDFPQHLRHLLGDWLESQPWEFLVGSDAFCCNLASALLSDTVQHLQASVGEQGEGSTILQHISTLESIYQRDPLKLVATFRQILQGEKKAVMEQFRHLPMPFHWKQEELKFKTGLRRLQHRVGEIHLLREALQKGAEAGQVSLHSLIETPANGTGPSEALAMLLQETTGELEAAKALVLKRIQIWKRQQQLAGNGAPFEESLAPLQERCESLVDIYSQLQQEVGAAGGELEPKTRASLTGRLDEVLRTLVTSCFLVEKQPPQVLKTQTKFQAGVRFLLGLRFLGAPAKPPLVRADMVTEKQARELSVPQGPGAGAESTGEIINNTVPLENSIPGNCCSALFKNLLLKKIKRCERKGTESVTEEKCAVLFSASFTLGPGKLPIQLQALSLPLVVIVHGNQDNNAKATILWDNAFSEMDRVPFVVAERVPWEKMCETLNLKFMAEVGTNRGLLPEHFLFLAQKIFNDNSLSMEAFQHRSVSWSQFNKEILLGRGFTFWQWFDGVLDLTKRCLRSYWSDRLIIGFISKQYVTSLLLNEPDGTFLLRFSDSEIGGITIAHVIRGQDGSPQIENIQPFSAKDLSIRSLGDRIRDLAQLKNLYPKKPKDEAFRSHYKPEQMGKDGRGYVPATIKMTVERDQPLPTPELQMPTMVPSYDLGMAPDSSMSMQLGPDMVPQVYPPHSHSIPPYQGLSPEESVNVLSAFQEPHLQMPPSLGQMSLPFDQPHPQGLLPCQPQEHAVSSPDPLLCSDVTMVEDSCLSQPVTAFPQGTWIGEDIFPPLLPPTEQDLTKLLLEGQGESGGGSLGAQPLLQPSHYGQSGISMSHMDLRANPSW
The experiment in a line: Reporter (luciferase) assay for STAT6 transcriptional activity in HepG2 cells. The format is cell-based. The arrangement: endogenous in cells; host or cells: HepG2 (gene transfected). Particulars: gene transfected HepG2, 10 ng IL-4, PLAG 0.01-10 μg/ml, 12 hours incubation. Here is the method: By using STAT6 inhibitor (S6I), it is confirmed that the reduction of Complement 3 in HepG2 cells (human hepatocyte cell line) is regulated by STAT6. […] It is also confirmed that PLAG has selective efficacy on STAT6 over STAT1. FIG. 1 presents graphs showing STAT1 and STAT6 transcriptional activity in the PLAG treated HepG2 cells. NC refers to the unstimulated control cell. For the STAT1 assay, gene transfected HepG2 (human hepatocyte cell line) is treated with 10 ng of IFN-γ and serially diluted PLAG is added (0.01 μg/ml, 0.1 μg/ml, 1 μg/ml, and 10 μg/ml as shown) to see its effect on gene expression in the stimulated cell. For the STAT6 assay, gene transfected HepG2 cells are treated with 10 ng of IL-4 and again serially diluted PLAG is added (0.01 μg/ml, 0.1 μg/ml, 1 μg/ml, and 10 μg/ml as shown) to see its effect on gene expression in the stimulated cell. The assay is carried out following 12 hours incubation of treated cells.

The test system of data set [2] is hematopoietic stem cells and megakaryocytes. Particulars: reported in WO 99/26640; cited from earlier work.
Data set [3] has as its system PKCθ/p38 MAPK/ERK pathway. Briefly: Dephosphorylation of p38 MAPK and ERK1/2 in PLAG-treated RBL-2H3 cells, western blot. It is filed as cell-based. Particulars: PLAG pre-incubated RBL-2H3 cells, IgE-antigen complex stimulation. The procedure: Dephosphorylation of p38 MAPK and ERK1/2 in PLAG-treated RBL-2H3 cells is determined by western blot analysis using anti-phospho-p38 and anti-phospho-ERK1/2 respectively. To activate the p38 and ERK1/2 in RBL-2H3 cells, the cells are sensitized with 50 ng/mL of anti-DNP-IgE overnight. After washing with PBS three times, 20 ng/ml of DNP-HSA is added. Each cell lysate for western blot is prepared in the PLAG-treated RBL-2H3 cells in a dose-dependent manner and incubated for the same time (15 min). β-actin is used as internal controls. ERK1/2 and p38 phosphorylation start immediately after IgE-antigen complex stimulation and remain sufficiently activated for 5 min.

For data set [4], the system named is HepG2 cells. Briefly: WST-1 cell viability assay in HepG2 cells. It is filed as cell-based. The conditions noted are these: PLAG 1 to 100 μg/ml. The procedure: The incubated HepG2 cell lines are treated with PLAG (1˜100 μg/ml), followed by IL-4 and TNF-α, reacted for 1 hour, incubated for 18 hours at 37° C. and the supernatant isolated. Quantitation of the amount of C3 in the cellular culture medium (supernatant) from HepG2 cells is performed by ELISA using a commercially available monoclonal antibody (mAb, R&D Systems) and the manufacture's protocol; the results are presented in FIG. 3. C3 is expressed spontaneously under in vitro culture condition using 10% FCS added to HepG2 cells incubated for 12 hr. The cells are treated with different doses of PLAG from 1 to 100 μg/ml (Panel A, Panel B) or 10 and 100 μg/ml of S6I (Panel C), reacted with IL-4 and TNF-α for 1 hr and then incubated for 18 hr at 37° C. Cellular viability is confirmed using the WST-1 assay (Panel A).

The subject of data set [5] is Complement 3. Briefly: Clinical study: activity of PLAG on Complement 3 in healthy subjects. It is filed as in vivo, human. The procedure:
A clinical study is conducted in Gwandong University MyungJi Hospital Clinical Study Center in Republic of Korea with 27 healthy patients to study immune-modulating effect of PLAG. Volunteers are tested for 30 days in vivo as oral administer (500 mg of PLAG per day) under a legitimate clinical approval. Complement 3 is counted using C3 assay kit. The analysis result is shown in FIG. 7, and change of immunoactivity by the administration of PLAG in healthy subjects is shown in Table 8 (effect of PLAG supplementation on immune function of peripheral blood after 4-wk intervention). As shown in FIG. 7 and Table 8, the majority of those who consume PLAG for a month (twenty-six (26) subjects out of 27 patients) show decreased complement 3 (C3), while the control group, who are treated with soybean oil, show both increase and decrease of C3.

For data set [6], the system named is C3. The experiment in a line: C3 inhibition by PLAG in HMC-1, ELISA. The format is cell-based, human. Particulars: HMC-1 cells, PLAG 1, 10 and 100 μg/mL for 2 hours, activated 72 hours. The procedure:
In a separate experiment, human mast cells (HMC-1, 1×10^5 cell/ml) are treated with PLAG of various concentrations (1, 10 and 100 μg/mL) for 2 hours. The cells are activated for 72 hours with 10% FBS (Fetal bovine serum) containing IMDM. The decrease of C3 is confirmed by ELISA analysis of the expressed protein.

As to `CCCCC/C=C\C/C=C\CCCCCCCC(=O)OC(COC(C)=O)COC(=O)CCCCCCCCCCCCCCC` (racemic) [PLAG, 1-palmitoyl-2-linoleoyl-3-acetylglycerol], the “STAT6 expression (transcriptional activity, reporter)” value in data set [1] is “significant, dose-dependent effect”. Moreover, in data set [2], the “growth-stimulating activities of hematopoietic stem cells and megakaryocytes” value was “growth-stimulating activities”. In data set [3], the “ERK1/2 and p38 phosphorylation” value was “down-regulated”. Moreover, the “cellular viability (WST-1)” value in data set [4] was “does not affect the cellular propagation and death”. In addition, in data set [5] (after administration of PLAG, p value <0.001), the “decrease of average concentration of C3 in blood” value is listed as “about 10 mg/dL”. Besides, the “subjects showing decreased complement 3 (C3)” value in data set [5] (out of 27 patients, PLAG for a month) was 26 subjects. The “decrease of C3 (expressed protein, ELISA)” value in data set [6] is on record as “proportional to the concentration of PLAG”.

(Values after patent publication US11491132B2, “Methods for treating thrombocytopenia” (Enzychem Lifesciences Corporation, priority 2014, dated 2022).)
